Numbered stars: 1 amine (or outer) side, 2 acyl side, 3 side chain; on linkers, the order of the positions; unused ones are H or OH. Square brackets hold non-standard residues; d marks the D form. Peptide text beside a SMILES is read from it. γGlu = O=C(O)[C@H](CCC(=O)[*:2])N[*:1]; Nspe = C[C@H](NCC(=O)O)c1ccccc1; Nlys = NCCCCNCC(=O)O
Columns and labels:
Type in all cases: functional
LNCaP [1] = assay: Cytotoxicity against human LNCAP cells assessed as induction of cell death after 48 hrs by MTS assay; conditions: read-out: LC50 (the source's name)
PC-3 = assay: Cytotoxicity against human PC3 cells assessed as induction of cell death after 48 hrs by MTS assay; conditions: PC-3, 48 h, read-out: LC50 (the source's name)
LNCaP [2] = assay: Selectivity ratio of LC50 for human PC3 cells to LC50 for human LNCaP cells

Structure (SMILES) | CC50 (LNCaP [1]) | CC50 (PC-3) | RatioLC50 (LNCaP [2])
CC(C)C[C@H](NC(=O)[C@H](CCCCN)NC(=O)[C@H](CO)NC(=O)[C@H](CO)NC(=O)[C@H](Cc1cnc[nH]1)NC(=O)CC[C@H](NC(=O)CC[C@H](N)C(=O)O)C(=O)O)C(=O)N[C@@H](CCC(N)=O)C(=O)N(CCCCN)CC(=O)N(CC(=O)N(CC(=O)N(CCCCN)CC(=O)N(CC(=O)N(CC(=O)N(CCCCN)CC(=O)N(CC(=O)N(CC(=O)N(CCCCN)CC(=O)N(CC(=O)N(CC(N)=O)[C@@H](C)c1ccccc1)[C@@H](C)c1ccccc1)[C@@H](C)c1ccccc1)[C@@H](C)c1ccccc1)[C@@H](C)c1ccccc1)[C@@H](C)c1ccccc1)[C@@H](C)c1ccccc1)[C@@H](C)c1ccccc1 ({γGlu-γGlu}-HSSKLQ[Nlys][Nspe][Nspe][Nlys][Nspe][Nspe][Nlys][Nspe][Nspe][Nlys][Nspe][Nspe]-NH2) | 10 µM | 18 µM | 1.8
C[C@@H](c1ccccc1)N(CC(N)=O)C(=O)CN(C(=O)CN(CCCCN)C(=O)CN(C(=O)CN(C(=O)CN(CCCCN)C(=O)CN(C(=O)CN(C(=O)CN(CCCCN)C(=O)CN(C(=O)CN(C(=O)CN(CCCCN)C(=O)CC[C@H](NC(=O)CC[C@H](N)C(=O)O)C(=O)O)[C@@H](C)c1ccccc1)[C@@H](C)c1ccccc1)[C@@H](C)c1ccccc1)[C@@H](C)c1ccccc1)[C@@H](C)c1ccccc1)[C@@H](C)c1ccccc1)[C@@H](C)c1ccccc1 ({γGlu-γGlu}-[Nlys][Nspe][Nspe][Nlys][Nspe][Nspe][Nlys][Nspe][Nspe][Nlys][Nspe][Nspe]-NH2) | 10 µM | 18 µM | 1.8
